Four molecules from paper PMC12951562, “SH2scan: Mapping SH2 Domain-Ligand Binding Selectivity for Inhibitors and Degraders” (Journal of Medicinal Chemistry, 2026) can be followed below.

Non-standard residues stand in square brackets, D forms with d. Residues, ends and D or L forms follow the SMILES beside them. pY = N[C@@H](Cc1ccc(OP(=O)(O)O)cc1)C(=O)O

What all share (assay): biochemical
What all share (assay type): binding

In one experiment the target is T1, SOCS7 (Homo sapiens, UniProt O14512).
T1 construct: made in house; host or cells: HEK293 (transient transfection), unpurified extract
T1 sequence (O14512 1-581): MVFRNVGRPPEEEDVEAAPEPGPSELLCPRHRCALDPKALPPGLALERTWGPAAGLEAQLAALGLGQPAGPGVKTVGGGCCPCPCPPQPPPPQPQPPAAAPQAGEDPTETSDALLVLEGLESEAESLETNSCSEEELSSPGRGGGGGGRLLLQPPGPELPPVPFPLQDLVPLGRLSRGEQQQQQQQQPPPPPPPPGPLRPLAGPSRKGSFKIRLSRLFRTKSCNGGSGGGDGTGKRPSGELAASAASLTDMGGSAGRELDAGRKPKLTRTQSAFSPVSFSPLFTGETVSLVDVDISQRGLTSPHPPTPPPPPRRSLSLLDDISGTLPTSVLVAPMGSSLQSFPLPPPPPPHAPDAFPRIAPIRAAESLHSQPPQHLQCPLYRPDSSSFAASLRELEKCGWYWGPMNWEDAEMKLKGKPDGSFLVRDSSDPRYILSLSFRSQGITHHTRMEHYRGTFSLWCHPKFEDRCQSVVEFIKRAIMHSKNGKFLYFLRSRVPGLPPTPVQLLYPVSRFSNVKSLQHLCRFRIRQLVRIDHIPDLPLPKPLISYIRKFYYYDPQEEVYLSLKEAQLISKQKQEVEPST

The target of a further experiment is T2, SOCS2 (Homo sapiens, UniProt O14508).
T2 construct: made in house; host or cells: HEK293 (transient transfection), unpurified extract
T2 sequence (O14508 1-198): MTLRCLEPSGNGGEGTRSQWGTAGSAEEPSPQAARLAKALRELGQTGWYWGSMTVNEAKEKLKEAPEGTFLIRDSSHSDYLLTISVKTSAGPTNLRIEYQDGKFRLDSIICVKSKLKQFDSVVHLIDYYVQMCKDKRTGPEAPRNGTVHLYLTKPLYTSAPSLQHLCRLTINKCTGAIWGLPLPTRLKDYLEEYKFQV

The next experiment has as its target T3, SOCS6 (Homo sapiens, UniProt O14544).
T3 construct: made in house; host or cells: HEK293 (transient transfection), unpurified extract
T3 sequence (O14544 1-535): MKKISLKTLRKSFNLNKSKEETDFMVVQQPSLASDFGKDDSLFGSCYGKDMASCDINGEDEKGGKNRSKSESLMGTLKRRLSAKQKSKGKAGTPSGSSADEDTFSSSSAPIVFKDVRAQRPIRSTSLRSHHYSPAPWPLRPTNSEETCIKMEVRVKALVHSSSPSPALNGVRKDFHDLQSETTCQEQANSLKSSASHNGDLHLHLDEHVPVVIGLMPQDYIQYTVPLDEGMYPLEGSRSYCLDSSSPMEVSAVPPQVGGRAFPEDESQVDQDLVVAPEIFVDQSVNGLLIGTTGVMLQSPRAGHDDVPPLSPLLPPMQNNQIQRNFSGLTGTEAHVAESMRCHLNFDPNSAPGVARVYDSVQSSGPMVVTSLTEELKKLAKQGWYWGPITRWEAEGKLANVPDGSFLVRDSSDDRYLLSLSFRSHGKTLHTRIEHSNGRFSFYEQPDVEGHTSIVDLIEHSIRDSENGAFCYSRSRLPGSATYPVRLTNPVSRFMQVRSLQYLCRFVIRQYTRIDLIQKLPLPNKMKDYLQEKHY

The target in a further experiment is T4, SHC2 (Homo sapiens, UniProt P98077).
T4 construct: made in house; host or cells: HEK293 (transient transfection), unpurified extract
T4 sequence (P98077 1-582): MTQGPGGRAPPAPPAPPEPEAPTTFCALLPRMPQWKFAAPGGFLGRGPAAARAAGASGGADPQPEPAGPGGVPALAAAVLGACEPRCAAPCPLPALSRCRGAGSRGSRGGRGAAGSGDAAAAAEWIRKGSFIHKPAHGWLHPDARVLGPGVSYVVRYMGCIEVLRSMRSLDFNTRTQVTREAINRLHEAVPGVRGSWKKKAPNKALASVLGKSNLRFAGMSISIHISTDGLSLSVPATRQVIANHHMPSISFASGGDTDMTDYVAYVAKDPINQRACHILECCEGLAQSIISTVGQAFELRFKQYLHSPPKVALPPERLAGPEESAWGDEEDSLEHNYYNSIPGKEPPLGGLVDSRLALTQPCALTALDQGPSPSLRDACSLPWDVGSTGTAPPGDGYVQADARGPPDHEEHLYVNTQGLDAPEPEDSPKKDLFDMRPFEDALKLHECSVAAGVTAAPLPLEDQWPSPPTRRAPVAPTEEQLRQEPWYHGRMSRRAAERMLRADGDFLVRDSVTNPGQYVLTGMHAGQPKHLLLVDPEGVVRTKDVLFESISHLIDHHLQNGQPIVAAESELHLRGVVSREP

Another experiment concerns the target T5, SHC1 (Homo sapiens, UniProt P29353).
T5 construct: made in house; host or cells: HEK293 (transient transfection), unpurified extract
T5 sequence (P29353 1-583): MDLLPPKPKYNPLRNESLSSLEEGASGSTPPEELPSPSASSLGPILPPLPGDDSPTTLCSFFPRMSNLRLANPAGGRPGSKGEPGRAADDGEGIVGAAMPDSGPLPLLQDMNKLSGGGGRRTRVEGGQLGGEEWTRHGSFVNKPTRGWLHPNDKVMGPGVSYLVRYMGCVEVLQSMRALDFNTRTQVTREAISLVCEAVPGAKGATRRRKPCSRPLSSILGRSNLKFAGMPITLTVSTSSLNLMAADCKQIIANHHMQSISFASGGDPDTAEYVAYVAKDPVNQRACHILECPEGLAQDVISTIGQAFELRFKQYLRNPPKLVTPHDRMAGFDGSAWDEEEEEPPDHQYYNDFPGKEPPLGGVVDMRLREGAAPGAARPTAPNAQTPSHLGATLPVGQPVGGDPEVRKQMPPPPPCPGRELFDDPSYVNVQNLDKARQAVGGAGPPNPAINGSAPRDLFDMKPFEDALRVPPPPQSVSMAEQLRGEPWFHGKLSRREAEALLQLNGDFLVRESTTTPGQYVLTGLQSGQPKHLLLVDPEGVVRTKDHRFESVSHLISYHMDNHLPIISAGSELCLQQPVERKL

In another experiment the target is T6, SHC3 (Homo sapiens, UniProt Q92529).
T6 construct: made in house; host or cells: HEK293 (transient transfection), unpurified extract
T6 sequence (Q92529 1-594): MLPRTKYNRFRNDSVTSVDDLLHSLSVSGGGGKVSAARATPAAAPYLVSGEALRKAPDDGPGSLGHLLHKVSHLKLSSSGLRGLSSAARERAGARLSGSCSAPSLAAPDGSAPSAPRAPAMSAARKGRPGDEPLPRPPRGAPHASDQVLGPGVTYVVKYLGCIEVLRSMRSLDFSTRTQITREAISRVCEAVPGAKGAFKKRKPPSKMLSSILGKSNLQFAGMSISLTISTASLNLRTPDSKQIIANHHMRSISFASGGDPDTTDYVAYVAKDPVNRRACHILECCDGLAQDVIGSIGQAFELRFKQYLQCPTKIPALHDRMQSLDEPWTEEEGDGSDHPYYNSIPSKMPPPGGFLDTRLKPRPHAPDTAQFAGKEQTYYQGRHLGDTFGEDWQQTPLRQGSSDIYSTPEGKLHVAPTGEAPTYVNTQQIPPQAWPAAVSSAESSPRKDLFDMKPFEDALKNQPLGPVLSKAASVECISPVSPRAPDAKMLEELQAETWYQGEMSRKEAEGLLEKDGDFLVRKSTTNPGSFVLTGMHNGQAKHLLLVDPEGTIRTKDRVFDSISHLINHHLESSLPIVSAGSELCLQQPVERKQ

The next experiment deals with T7, SHC4 (Homo sapiens, UniProt Q6S5L8).
T7 construct: made in house; host or cells: HEK293 (transient transfection), unpurified extract
T7 sequence (Q6S5L8 1-630): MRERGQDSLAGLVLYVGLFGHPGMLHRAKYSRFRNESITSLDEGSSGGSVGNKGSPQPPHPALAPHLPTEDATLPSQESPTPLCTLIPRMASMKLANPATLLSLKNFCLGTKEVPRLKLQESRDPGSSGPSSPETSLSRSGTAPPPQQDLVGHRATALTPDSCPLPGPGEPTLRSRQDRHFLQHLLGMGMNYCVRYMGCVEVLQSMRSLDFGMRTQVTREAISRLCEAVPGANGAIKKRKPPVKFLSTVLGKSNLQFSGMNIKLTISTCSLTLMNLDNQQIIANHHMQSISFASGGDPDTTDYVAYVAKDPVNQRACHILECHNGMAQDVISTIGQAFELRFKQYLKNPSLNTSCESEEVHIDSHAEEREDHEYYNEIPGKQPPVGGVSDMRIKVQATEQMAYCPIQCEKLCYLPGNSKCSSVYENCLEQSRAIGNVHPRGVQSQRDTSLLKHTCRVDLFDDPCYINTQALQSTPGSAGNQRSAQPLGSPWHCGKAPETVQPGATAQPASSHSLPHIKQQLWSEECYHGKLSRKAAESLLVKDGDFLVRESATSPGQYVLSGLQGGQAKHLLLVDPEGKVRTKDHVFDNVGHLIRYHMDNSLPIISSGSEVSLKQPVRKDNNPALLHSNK

A further experiment has as its target T8, SRC (Homo sapiens, UniProt P12931).
T8 construct: made in house; host or cells: HEK293 (transient transfection), unpurified extract

The next experiment has as its target T9, HCK (Homo sapiens, UniProt P08631).
T9 construct: the DNA-tagged SH2 domain concentrations used in this study were <0.1 nM; made in house; host or cells: HEK293 (transient transfection, unpurified extract)

In another experiment the target is T10, LCK (Homo sapiens, UniProt P06239).
T10 construct: the DNA-tagged SH2 domain concentrations used in this study were <0.1 nM; made in house; host or cells: HEK293 (transient transfection, unpurified extract)
T10 sequence (P06239 127-224 limits assumed): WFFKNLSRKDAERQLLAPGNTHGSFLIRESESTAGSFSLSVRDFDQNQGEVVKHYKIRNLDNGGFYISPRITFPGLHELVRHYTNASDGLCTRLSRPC

The target in the next experiment is T11, SHF (Homo sapiens, UniProt Q7M4L6).
T11 construct: made in house; host or cells: HEK293 (transient transfection), unpurified extract
T11 sequence (Q7M4L6 1-423): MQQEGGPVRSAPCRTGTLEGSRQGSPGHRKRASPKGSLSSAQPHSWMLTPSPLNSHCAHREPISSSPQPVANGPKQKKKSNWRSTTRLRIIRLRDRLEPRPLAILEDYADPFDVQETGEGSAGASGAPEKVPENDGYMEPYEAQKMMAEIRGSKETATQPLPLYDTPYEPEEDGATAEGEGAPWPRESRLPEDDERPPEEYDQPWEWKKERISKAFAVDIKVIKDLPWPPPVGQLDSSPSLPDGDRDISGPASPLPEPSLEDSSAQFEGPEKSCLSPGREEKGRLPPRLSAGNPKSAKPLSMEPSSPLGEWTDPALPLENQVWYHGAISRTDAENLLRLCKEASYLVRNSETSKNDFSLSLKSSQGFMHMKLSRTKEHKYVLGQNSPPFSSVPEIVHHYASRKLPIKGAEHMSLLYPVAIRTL

Another experiment addresses T12, PLCG2(SH2dom.C-term.) (Homo sapiens, UniProt P16885).
T12 construct: SH2dom.C-term. denotes SH2 domain closest to C-terminus of protein; made in house; host or cells: HEK293 (transient transfection, unpurified extract)
T12 sequence (P16885 646-735 limits assumed): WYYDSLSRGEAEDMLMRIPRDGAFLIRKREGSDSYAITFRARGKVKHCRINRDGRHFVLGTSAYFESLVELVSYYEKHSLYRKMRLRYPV

T8 sequence (P12931 whole entry): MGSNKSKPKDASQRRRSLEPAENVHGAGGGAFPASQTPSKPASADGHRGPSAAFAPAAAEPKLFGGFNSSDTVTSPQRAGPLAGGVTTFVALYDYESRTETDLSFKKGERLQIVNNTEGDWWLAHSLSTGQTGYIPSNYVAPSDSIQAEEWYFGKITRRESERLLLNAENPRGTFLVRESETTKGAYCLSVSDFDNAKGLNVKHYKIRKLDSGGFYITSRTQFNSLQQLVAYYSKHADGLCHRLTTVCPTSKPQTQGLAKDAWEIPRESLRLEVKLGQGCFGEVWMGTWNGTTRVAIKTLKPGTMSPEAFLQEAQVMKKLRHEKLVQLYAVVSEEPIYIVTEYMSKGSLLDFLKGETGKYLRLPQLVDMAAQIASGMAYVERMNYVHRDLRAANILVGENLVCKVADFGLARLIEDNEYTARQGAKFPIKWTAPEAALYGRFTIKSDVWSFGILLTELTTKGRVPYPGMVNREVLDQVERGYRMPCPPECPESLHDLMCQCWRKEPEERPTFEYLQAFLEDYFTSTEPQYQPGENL
T9 sequence (P08631 144-241 limits assumed): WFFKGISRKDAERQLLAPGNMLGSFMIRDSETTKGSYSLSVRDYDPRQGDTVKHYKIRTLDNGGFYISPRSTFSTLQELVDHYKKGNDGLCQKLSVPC

As a reminder, the Kd is the equilibrium constant for the complex coming apart. A lower Kd goes with a tighter complex. In the case of `CC[C@H](C)[C@H](NC(=O)[C@H](Cc1ccc(O)cc1)NC(=O)[C@@H](NC(=O)[C@H](Cc1ccc(OP(=O)(O)O)cc1)NC(=O)[C@H](CC(N)=O)NC(=O)[C@H](CC(N)=O)NC(=O)CNC(=O)[C@H](CC(N)=O)NC(C)=O)C(C)C)C(=O)N[C@@H](CC(=O)O)C(=O)N1CCC[C@H]1C(=O)N[C@H](C(N)=O)[C@@H](C)O` [Ac-NGNNpYVYIDPT-NH2], the Kd at SOCS7 was 11.7 ± 0.822 µM; on SOCS2, 4.2 ± 0.739 µM; at SOCS6, 0.0206 ± 0.00433 µM.
For the molecule `CC(=O)N[C@@H](CCC(=O)O)C(=O)N[C@@H](CC(N)=O)C(=O)N[C@@H](C)C(=O)N[C@@H](CCC(=O)O)C(=O)N[C@@H](Cc1ccc(OP(=O)(O)O)cc1)C(=O)N[C@@H](CC(C)C)C(=O)N[C@@H](CCCNC(=N)N)C(=O)N[C@H](C(=O)N[C@@H](C)C(N)=O)C(C)C` [Ac-ENAEpYLRVA-NH2] (Ac-ENAE[pY]LRVA-NH2), the equilibrium dissociation constant (Kd) at SHC2 amounted to 4.39 ± 0.413 µM; on SHC1 it was 11 ± 1.26 µM; on SHC3 it was 3.78 ± 0.472 µM; at SHC4 it was 6.63 ± 0.773 µM.
As to `CC[C@H](C)[C@H](NC(=O)[C@@H]1CCCN1C(=O)[C@@H](NC(=O)[C@H](CCC(=O)O)NC(=O)[C@H](CCC(=O)O)NC(=O)[C@H](Cc1ccc(OP(=O)(O)O)cc1)NC(=O)[C@H](CCC(N)=O)NC(=O)[C@@H]1CCCN1C(=O)[C@H](CCC(=O)O)NC(C)=O)[C@@H](C)CC)C(=O)N[C@@H](Cc1ccc(O)cc1)C(=O)N[C@@H](CC(C)C)C(N)=O` (Ac-EPQ[pY]EEIPIYL-NH2), the Kd on SRC turned out to be 2.71 ± 1.95 µM; on HCK, 1.44 ± 0.475 µM; at LCK it was 0.097 ± 0.0516 µM.
For `CC[C@H](C)[C@H](NC(=O)[C@@H](NC(=O)[C@H](Cc1ccc(OP(=O)(O)O)cc1)NC(=O)[C@H](CO)NC(=O)[C@H](CCCNC(=N)N)NC(=O)[C@@H](NC(=O)[C@H](CO)NC(=O)[C@H](CCC(=O)O)NC(=O)[C@H](CCCCN)NC(=O)[C@H](CCCCN)NC(=O)[C@H](CCCCN)NC(=O)[C@H](CCCCN)NC(C)=O)[C@@H](C)O)C(C)C)C(=O)N[C@@H](CC(C)C)C(=O)N[C@@H](CO)C(=O)N[C@@H](Cc1ccccc1)C(=O)N[C@@H](CCC(=O)O)C(=O)N[C@@H](CC(N)=O)C(=O)N[C@@H](CC(N)=O)C(=O)NCC(N)=O` (Ac-KKKKESTRS[pY]VILSFENNG-NH2), the Kd on SHF stood at 1.47 ± 0.88 µM; on PLCG2(SH2dom.C-term.) it was 0.0109 ± 0.00709 µM.
